Reference: patent publication US12011439B2, “Combination therapy using C—C chemokine receptor 4 (CCR4) antagonists and one or more immune checkpoint inhibitors” (CHEMOCENTRYX, INC., priority 2018, dated 2024)

Key:
CCR2 = CCR2 (Homo sapiens, UniProt P41597); experiment: Compound 1 selectivity panel, buffer IC50; format: cell-based; conditions: Receptor CCR2
Protocol: (§1) The selectivity of Compound 1 was tested by determining the IC50 value against a diverse panel of receptors, enzymes, and ion channels. […] See, Table 1.

CCR10 = molecular target: T1, CCR10 (Homo sapiens, UniProt P46092); experiment: Compound 1 selectivity panel, buffer IC50; format: cell-based; conditions: Receptor CCR10
T1 sequence (P46092 1-362): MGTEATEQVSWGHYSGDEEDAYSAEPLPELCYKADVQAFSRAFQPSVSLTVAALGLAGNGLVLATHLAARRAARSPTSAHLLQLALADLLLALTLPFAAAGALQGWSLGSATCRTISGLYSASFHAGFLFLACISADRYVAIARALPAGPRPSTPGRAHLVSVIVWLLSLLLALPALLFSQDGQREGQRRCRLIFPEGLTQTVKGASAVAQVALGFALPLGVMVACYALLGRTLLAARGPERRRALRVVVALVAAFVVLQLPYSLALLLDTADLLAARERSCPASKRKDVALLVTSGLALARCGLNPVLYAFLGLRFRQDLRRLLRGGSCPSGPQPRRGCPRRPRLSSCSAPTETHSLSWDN
Protocol: as §1

CCR5 = CCR5 (Homo sapiens, UniProt P51681); experiment: Compound 1 selectivity panel, buffer IC50; format: cell-based; conditions: Receptor CCR5
Protocol: as §1

[1] = Compound 1 selectivity panel, buffer IC50; format: cell-based; conditions: Receptor CCR12
Protocol: as §1

mCCR4 [2] = molecular target: T2, mCCR4 (Mus musculus, UniProt P51680); experiment: 125I-CCL17 binding, mouse CCR4 cells; conditions: Mouse mCCR4-293 cells, buffer
T2 sequence (P51680 1-360): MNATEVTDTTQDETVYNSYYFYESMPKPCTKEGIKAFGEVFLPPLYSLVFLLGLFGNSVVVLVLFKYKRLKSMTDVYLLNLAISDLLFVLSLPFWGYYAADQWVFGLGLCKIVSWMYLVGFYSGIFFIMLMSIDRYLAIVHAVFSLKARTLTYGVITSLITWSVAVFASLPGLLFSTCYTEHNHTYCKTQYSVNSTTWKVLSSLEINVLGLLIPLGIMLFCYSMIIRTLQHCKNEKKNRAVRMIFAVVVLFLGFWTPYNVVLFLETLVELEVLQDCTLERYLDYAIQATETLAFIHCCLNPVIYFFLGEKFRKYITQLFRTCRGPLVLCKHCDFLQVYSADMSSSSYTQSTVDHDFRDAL

[3] = Plasma compound concentrations at trough in the KCM study; format: in vivo, mice; conditions: day 12, KCM model
mCCR4 [4] = molecular target: T2, mCCR4; experiment: CCL22 chemotaxis, mouse CCR4 cells; format: cell-based; conditions: Mouse mCCR4-Baf3 cells
CCR4 [5] = molecular target: T3, CCR4 (Homo sapiens, UniProt P51679); experiment: 125I-CCL17 binding, human cells; conditions: buffer
T3 sequence (P51679 1-360): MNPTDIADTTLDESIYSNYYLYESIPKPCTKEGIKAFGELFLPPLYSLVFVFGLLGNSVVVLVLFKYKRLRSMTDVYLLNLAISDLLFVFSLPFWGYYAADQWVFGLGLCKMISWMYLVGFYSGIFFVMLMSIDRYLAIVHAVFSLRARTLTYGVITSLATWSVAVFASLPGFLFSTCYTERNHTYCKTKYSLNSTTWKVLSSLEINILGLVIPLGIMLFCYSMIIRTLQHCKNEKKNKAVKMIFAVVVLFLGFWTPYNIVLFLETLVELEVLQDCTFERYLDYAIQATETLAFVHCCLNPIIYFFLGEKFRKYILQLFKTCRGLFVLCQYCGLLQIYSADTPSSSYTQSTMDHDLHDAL

CCR4 [6] = molecular target: T3, CCR4; experiment: CCL22 chemotaxis, human cells; format: cell-based
KCM cells = experiment: KCM orthotopic pancreatic tumor model; format: in vivo, mice
Source text: The subcutaneous CT26 colon cancer model and the orthotopic KCM pancreatic cancer model were used to assess the effects of a CCR4 inhibitor, Compound 1, in combination with anti-CTLA-4 antibody (BioXcell: anti-mouse CTLA-4 (Clone: 9H10), raised in Syrian Hamster, purified with protein G). CT26 cells were implanted into the flanks of 9 week female Balb/c mice. Mice were randomized into study groups based on the tumor sizes on day 6, and dosing of both Compound 1 and anti-CTLA-4 started on day 7. For the orthotopic pancreatic cancer model, KCM cells were implanted directly into the pancreas, and dosing of Compound 1 and anti-CTLA-4 also began on day 7. Compound 1 was dosed orally twice daily at 30 mg/kg, and anti-CTLA-4 was dosed IP on days 7, 11 and 15 at 100 μg/mouse.
As briefly described in Example 1, above, a KCM pancreatic cancer model was used to assess the effectiveness of a CCR4 inhibitor in combination with an anti-CTLA-4 antibody. The mice were broken into 4 groups (n=12 each group): isotype antibody+Vehicle; Isotype Antibody+Compound 1; anti-CTLA-4+Vehicle; anti-CTLA-4+Compound 1. The mice used were 7-8 week old C57BL/6 female mice. […]
After completion of the study, the tumor/pancreases weight for each group was measured. […]
Changes in suppressive immune cell populations were also measured at the completion of this study. […] Pancreas from sham-operated mice were processed and analyzed. […]

Sequence of CCR2 (P41597 whole entry, species assumed): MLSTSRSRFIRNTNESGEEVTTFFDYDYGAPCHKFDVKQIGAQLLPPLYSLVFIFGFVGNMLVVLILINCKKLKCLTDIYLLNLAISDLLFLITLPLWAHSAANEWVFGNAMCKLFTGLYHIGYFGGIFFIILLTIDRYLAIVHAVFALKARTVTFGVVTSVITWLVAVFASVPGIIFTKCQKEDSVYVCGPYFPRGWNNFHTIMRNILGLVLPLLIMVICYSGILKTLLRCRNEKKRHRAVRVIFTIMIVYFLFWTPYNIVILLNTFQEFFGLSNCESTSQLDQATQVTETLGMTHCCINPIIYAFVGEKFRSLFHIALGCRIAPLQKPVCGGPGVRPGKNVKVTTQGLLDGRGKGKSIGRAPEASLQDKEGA
Sequence of CCR5 (P51681 whole entry, species assumed): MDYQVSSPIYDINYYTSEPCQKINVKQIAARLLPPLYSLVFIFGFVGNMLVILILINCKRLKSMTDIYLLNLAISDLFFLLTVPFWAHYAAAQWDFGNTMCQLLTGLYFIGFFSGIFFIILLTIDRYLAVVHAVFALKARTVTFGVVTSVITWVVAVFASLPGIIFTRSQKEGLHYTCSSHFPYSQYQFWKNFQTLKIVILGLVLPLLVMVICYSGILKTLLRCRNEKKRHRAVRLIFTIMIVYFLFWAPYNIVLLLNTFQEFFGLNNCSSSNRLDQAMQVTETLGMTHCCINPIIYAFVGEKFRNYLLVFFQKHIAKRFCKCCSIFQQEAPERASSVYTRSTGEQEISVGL

IC50 (CCR2): > 10000 nM
IC50 (CCR10): > 10000 nM
IC50 (CCR5): > 10000 nM
IC50 [1]: > 10000 nM
IC50 (mCCR4 [2]): 27 nM
Plasma compound concentrations at trough [3]: Adequate compound levels
Chemotaxis A2 (mCCR4 [4]; 100% serum): 60 nM
Chemotaxis A2 (mCCR4 [4]; buffer): 4 nM
IC50 (CCR4 [5]; Human CEM cells): 23 nM
IC50 (CCR4 [5]; Human lymphocytes): 37 nM
Chemotaxis A2 (CCR4 [6]; Human CEM cells, 100% serum): 20 nM
Chemotaxis A2 (CCR4 [6]; Human CEM cells, buffer): 2 nM
Chemotaxis A2 (CCR4 [6]; Human lymphocytes, 100% serum): 20 nM
Chemotaxis A2 (CCR4 [6]; Human lymphocytes, buffer): 10 nM
SMILES: C[C@@H](Nc1cc(C2CCN([C@H]3CCCN(CCC(=O)O)C3)CC2)ccc1Cl)c1ccc(Cl)cc1Cl [Compound 1]
Spleen weight (KCM cells): reduced
Tumor burden (tumor + pancreas weight) (KCM cells; Compound 1 bid, anti-CTLA-4 100 μg i.p.): significantly reduced tumor burden
